{"source": "patent US9763897B2", "about": "“Therapeutic astaxanthin and phospholipid composition and associated method” (U.S. NUTRACEUTICALS, LLC, priority 2010, dated 2017)", "origin": "cited, not measured here", "key": {"[1]": {"system": "lens epithelial cells", "settings": "umol/L concentrations"}, "[2]": {"system": "C-Reactive Protein (C-RP)"}, "[3]": {"system": "LDL cholesterol", "settings": "3.6 mg astaxanthin per day for two weeks"}, "[4]": {"system": "LDL cholesterol oxidation", "settings": "4 mg astaxanthin per day for two weeks"}, "[5]": {"settings": "6 mg per day, eight weeks, healthy adults"}, "[6]": {"system": "pro-oxidant activity of Vioxx (membrane lipid per-oxidation)", "settings": "in vitro"}}, "data": [{"smiles": "CCCCCCCCCCCCCCCC(=O)O[C@H]1CC(C)(C)C(/C=C/C(C)=C/C=C/C(C)=C/C=C/C=C(C)/C=C/C=C(C)/C=C/C2=C(C)C(=O)[C@@H](OC(=O)CCCCCCCCCCCCCCC)CC2(C)C)=C(C)C1=O", "note": "[3R,3′R-astaxanthin dipalmitate, (3R,3′R-astaxanthin dipalmitate, reference compound]", "values": [{"measurement": "relative absorption of astaxanthin compared to the other two isomers", "setting": "men, Coral-Hinostroza et al. (2004)", "result": "higher relative absorption"}]}, {"smiles": "CC1=C(/C=C/C(C)=C/C=C/C(C)=C/C=C/C=C(C)/C=C/C=C(C)/C=C/C2=C(C)C(=O)[C@@H](O)CC2(C)C)C(C)(C)C[C@H](O)C1=O", "note": "[Astaxanthin, 3,3′-dihydroxy-β-β-carotene-4,4′-dione]", "values": [{"measurement": "effect on UVB induced lipid per-oxidative mediated cell damage", "setting": "[1]", "result": "suppresses UVB induced lipid per-oxidative mediated cell damage"}, {"measurement": "decrease in C-reactive protein scores", "setting": "[2]; 4 mg astaxanthin for eight weeks", "result": 21, "unit": "%"}, {"measurement": "drop in serum C-RP levels", "setting": "[2]; human subjects with high risk C-RP levels, three months of treatment", "result": 43, "unit": "%"}, {"measurement": "protection of LDL cholesterol against induced in vitro oxidation", "setting": "[3]", "result": "protects LDL cholesterol against induced in vitro oxidation"}, {"measurement": "reduction of LDL cholesterol oxidation", "setting": "[4]", "result": 26, "unit": "%"}, {"measurement": "negative effect of supplementation", "setting": "[5]", "result": "no negative effect"}, {"measurement": "effect on pro-oxidant activity of Vioxx", "setting": "[6]", "result": "negate the pro-oxidant activity of Vioxx"}]}, {"smiles": "CC1=C(/C=C/C(C)=C/C=C/C(C)=C/C=C/C=C(C)/C=C/C=C(C)/C=C/C2=C(C)C(=O)[C@@H](O)CC2(C)C)C(C)(C)C[C@H](O)C1=O", "note": "[free astaxanthin diol]", "values": [{"measurement": "uptake relative to esterified astaxanthin", "setting": "human plasma, versus esterified astaxanthin", "result": "4-5 times"}]}]}
